Patent US20220088016A1, “CANCER TREATMENT USING MULTI-TARGETED KINASE INHIBITOR IN COMBINATION OF PROTEIN KINASE BIOMARKERS” (ZHEJIANG CROWNMAB BIOTECH CO. LTD., priority 2019, published 2022)

Experiments:
[1] = target: ABL1 (E255K)-phosphorylated (Homo sapiens, UniProt P00519, E255K); experiment: Kinase profiling; assay type: binding; details: read-out: % Ctrl @ 1000 nM
ABL1-phosphorylated = ABL1-phosphorylated (Homo sapiens, UniProt P00519); experiment: Kinase profiling; assay type: binding; details: read-out: % Ctrl @ 1000 nM
PCTK1 = PCTK1 (Homo sapiens, UniProt Q00536); experiment: Kinase profiling; assay type: binding; details: read-out: % Ctrl @ 1000 nM
Chain of PCTK1 (Q00536 whole entry): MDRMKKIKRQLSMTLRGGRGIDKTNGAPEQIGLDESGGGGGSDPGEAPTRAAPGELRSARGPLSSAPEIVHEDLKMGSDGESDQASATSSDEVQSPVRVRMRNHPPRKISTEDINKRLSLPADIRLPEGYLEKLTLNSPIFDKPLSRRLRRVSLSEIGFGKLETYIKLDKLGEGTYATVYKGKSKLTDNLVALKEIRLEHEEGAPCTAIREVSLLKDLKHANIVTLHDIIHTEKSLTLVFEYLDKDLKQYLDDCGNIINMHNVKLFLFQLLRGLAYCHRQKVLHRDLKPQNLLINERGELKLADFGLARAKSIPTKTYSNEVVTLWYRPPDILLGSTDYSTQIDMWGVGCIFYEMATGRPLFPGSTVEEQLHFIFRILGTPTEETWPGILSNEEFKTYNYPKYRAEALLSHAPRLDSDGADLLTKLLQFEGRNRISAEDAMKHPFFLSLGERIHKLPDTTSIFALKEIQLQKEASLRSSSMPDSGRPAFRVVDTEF

SGK = SGK (Homo sapiens, UniProt O00141); experiment: Kinase profiling; assay type: binding; details: read-out: % Ctrl @ 1000 nM
Chain of SGK (O00141 whole entry): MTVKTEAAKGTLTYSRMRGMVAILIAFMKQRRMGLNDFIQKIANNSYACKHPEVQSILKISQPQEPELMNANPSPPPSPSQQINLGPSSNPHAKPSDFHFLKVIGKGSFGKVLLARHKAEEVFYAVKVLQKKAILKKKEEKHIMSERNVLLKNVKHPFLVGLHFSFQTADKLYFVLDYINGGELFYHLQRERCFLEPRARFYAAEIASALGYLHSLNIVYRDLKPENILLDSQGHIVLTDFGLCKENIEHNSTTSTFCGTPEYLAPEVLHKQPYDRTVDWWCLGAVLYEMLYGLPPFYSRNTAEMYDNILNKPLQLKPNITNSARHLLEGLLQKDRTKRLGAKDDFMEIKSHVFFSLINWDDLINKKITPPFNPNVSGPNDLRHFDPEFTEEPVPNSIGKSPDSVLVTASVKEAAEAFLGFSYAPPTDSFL

FRK = FRK (Homo sapiens, UniProt P42685); experiment: Kinase profiling; assay type: binding; details: read-out: % Ctrl @ 1000 nM
ADCK3 = ADCK3 (Homo sapiens, UniProt Q8NI60); experiment: Kinase profiling; assay type: binding; details: read-out: % Ctrl @ 1000 nM
CAMK1G = CAMK1G (Homo sapiens, UniProt Q96NX5); experiment: Kinase profiling; assay type: binding; details: read-out: % Ctrl @ 1000 nM
ROS1 = ROS1 (Homo sapiens, UniProt P08922); experiment: Kinase profiling; assay type: binding; details: read-out: % Ctrl @ 1000 nM
NIK = target: T1, NIK (Homo sapiens, UniProt Q99558); experiment: Kinase profiling; assay type: binding; details: read-out: % Ctrl @ 1000 nM
T1 construct: T7 phage fusion (said for most assays); made in house
T1 sequence (Q99558 whole entry, the tested form may be a part): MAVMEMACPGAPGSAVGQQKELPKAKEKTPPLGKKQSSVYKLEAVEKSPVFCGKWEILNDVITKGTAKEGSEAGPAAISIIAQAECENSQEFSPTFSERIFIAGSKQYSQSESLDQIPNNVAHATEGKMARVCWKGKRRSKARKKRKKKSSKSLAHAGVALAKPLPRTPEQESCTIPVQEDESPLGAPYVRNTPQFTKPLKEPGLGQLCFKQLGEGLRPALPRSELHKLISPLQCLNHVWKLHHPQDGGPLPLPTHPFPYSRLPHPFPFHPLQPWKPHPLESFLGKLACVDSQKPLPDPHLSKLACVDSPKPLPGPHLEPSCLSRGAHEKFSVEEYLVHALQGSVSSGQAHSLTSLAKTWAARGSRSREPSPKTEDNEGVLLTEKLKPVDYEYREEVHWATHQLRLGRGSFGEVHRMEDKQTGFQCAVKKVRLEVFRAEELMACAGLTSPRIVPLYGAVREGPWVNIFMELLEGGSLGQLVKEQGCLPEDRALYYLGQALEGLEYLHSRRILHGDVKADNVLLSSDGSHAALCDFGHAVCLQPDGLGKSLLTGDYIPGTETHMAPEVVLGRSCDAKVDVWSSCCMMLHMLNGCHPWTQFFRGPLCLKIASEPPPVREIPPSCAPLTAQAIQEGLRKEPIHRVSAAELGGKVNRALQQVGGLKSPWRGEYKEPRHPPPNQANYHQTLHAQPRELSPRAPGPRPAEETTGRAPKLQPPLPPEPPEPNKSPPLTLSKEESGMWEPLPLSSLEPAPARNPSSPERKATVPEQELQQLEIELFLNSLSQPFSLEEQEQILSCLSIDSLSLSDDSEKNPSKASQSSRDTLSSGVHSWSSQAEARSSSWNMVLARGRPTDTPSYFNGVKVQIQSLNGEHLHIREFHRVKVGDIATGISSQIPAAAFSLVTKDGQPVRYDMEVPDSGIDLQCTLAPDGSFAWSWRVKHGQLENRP

JNK2 = JNK2 (Homo sapiens, UniProt P45984); experiment: Kinase profiling; assay type: binding; details: read-out: % Ctrl @ 1000 nM
PIK3CA (E545K) = PIK3CA (E545K) (Homo sapiens, UniProt P42336, E545K); experiment: Kinase profiling; assay type: binding; details: read-out: % Ctrl @ 1000 nM
TIE2 = TIE2 (Homo sapiens, UniProt Q02763); experiment: Kinase profiling; assay type: binding; details: read-out: % Ctrl @ 1000 nM
JNK1 = JNK1 (Homo sapiens, UniProt P45983); experiment: Kinase profiling; assay type: binding; details: read-out: % Ctrl @ 1000 nM
EPHB3 = EPHB3 (Homo sapiens, UniProt P54753); experiment: Kinase profiling; assay type: binding; details: read-out: % Ctrl @ 1000 nM
KIT (V559D, V654A) = KIT (V559D, V654A) (Homo sapiens, UniProt P10721, V559D/V654A); experiment: Kinase profiling; assay type: binding; details: read-out: % Ctrl @ 1000 nM
CDK11 = CDK11 (Homo sapiens, UniProt Q9BWU1); experiment: Kinase profiling; assay type: binding; details: read-out: % Ctrl @ 1000 nM
[2] = system: CD3 (T cell surface marker); experiment: CD3 IHC test in MC-38 tumor; assay type: in vivo, mouse; details: MC-38 tumors; vs vehicle group
Procedure: MC38 tumor tissues were collected at the end of the in vivo efficacy trial. The tumor tissue was then embedded in paraffin. The expression of CD3/CD4/CD8/F4-80 were tested by immunohistochemistry stain.

BMPR1B = BMPR1B (Homo sapiens, UniProt O00238); experiment: Kinase profiling; assay type: binding; details: read-out: % Ctrl @ 1000 nM
[3] = target: JAK1 (JH1domain-catalytic) (Homo sapiens, UniProt P23458); experiment: Kinase profiling; assay type: binding; details: read-out: % Ctrl @ 1000 nM
Chain of JAK1 (JH1domain-catalytic) (P23458 875-1153 limits assumed): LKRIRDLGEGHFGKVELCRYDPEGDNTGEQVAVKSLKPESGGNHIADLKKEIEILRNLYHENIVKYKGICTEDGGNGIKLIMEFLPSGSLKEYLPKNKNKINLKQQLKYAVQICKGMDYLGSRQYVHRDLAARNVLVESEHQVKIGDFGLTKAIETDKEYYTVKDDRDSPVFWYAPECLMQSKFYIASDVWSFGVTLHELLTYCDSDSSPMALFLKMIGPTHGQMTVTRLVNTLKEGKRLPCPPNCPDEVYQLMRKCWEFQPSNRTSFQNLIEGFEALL

BUB1 = BUB1 (Homo sapiens, UniProt O43683); experiment: Kinase profiling; assay type: binding; details: read-out: % Ctrl @ 1000 nM
CAMK2A = CAMK2A (Homo sapiens, UniProt Q9UQM7); experiment: Kinase profiling; assay type: binding; details: read-out: % Ctrl @ 1000 nM
Chain of CAMK2A (Q9UQM7 whole entry): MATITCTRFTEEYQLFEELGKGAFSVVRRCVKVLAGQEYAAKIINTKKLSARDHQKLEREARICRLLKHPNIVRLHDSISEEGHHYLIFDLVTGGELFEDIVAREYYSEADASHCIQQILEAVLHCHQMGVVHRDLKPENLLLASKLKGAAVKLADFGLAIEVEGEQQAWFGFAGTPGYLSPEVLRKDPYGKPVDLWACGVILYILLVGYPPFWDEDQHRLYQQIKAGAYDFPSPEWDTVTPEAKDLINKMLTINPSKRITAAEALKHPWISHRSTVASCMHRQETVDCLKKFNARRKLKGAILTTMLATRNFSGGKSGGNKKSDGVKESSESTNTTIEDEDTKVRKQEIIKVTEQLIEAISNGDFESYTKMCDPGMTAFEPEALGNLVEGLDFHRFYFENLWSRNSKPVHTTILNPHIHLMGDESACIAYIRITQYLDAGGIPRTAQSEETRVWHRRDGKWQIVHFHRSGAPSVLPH

CSNK1G1 = CSNK1G1 (Homo sapiens, UniProt Q9HCP0); experiment: Kinase profiling; assay type: binding; details: read-out: % Ctrl @ 1000 nM
PRKR = PRKR (Homo sapiens, UniProt P19525); experiment: Kinase profiling; assay type: binding; details: read-out: % Ctrl @ 1000 nM
Chain of PRKR (P19525 whole entry): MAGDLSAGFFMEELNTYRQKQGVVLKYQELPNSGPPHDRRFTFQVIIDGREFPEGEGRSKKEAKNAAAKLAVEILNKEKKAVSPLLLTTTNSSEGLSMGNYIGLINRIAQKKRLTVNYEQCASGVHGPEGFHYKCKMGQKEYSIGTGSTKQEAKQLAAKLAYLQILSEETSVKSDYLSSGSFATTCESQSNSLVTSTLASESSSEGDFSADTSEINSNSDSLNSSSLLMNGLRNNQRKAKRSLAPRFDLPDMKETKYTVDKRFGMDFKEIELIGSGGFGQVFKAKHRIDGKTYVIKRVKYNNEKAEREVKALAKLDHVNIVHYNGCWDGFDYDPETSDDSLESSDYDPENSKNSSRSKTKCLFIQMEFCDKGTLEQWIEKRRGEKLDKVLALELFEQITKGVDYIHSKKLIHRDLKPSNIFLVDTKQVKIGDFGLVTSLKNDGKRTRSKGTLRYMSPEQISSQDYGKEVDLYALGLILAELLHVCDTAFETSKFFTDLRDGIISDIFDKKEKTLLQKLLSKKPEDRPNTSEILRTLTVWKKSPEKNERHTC

CIT = CIT (Homo sapiens, UniProt O14578); experiment: Kinase profiling; assay type: binding; details: read-out: % Ctrl @ 1000 nM
NEK6 = target: T2, NEK6 (Homo sapiens, UniProt Q9HC98); experiment: Kinase profiling; assay type: binding; details: read-out: % Ctrl @ 1000 nM
T2 construct: T7 phage fusion (said for most assays); made in house

PFTAIRE2 = PFTAIRE2 (Homo sapiens, UniProt Q96Q40); experiment: Kinase profiling; assay type: binding; details: read-out: % Ctrl @ 1000 nM
Chain of PFTAIRE2 (Q96Q40 whole entry): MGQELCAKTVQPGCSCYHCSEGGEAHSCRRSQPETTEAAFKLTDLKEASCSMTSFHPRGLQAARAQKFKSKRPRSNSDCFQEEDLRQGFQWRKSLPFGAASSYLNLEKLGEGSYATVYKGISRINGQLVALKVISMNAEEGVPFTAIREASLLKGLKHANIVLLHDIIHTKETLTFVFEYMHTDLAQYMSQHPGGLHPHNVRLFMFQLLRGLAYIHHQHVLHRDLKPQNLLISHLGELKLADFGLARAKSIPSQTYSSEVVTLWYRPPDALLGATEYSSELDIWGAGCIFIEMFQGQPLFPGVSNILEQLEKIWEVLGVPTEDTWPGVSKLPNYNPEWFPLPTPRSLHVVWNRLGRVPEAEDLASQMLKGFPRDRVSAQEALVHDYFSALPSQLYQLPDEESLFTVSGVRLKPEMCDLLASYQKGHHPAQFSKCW

S6K1 = S6K1 (Homo sapiens, UniProt P23443); experiment: Kinase profiling; assay type: binding; details: read-out: % Ctrl @ 1000 nM
FLT3 (D835Y) = FLT3 (D835Y) (Homo sapiens, UniProt P36888, D835Y); experiment: Kinase profiling; assay type: binding; details: read-out: % Ctrl @ 1000 nM
MUSK = target: T3, MUSK (Homo sapiens, UniProt O15146); experiment: Kinase profiling; assay type: binding; details: read-out: % Ctrl @ 1000 nM
T3 construct: T7 phage fusion (said for most assays); made in house

TLK1 = TLK1 (Homo sapiens, UniProt Q9UKI8); experiment: Kinase profiling; assay type: binding; details: read-out: % Ctrl @ 1000 nM
KIT (L576P) = KIT (L576P) (Homo sapiens, UniProt P10721, L576P); experiment: Kinase profiling; assay type: binding; details: read-out: % Ctrl @ 1000 nM
PIP5K1A = PIP5K1A (Homo sapiens, UniProt Q99755); experiment: Kinase profiling; assay type: binding; details: read-out: % Ctrl @ 1000 nM
[4] = target: RSK2 (Kin.Dom.2-C-terminal) (Homo sapiens, UniProt P51812); experiment: Kinase profiling; assay type: binding; details: read-out: % Ctrl @ 1000 nM
Chain of RSK2 (Kin.Dom.2-C-terminal) (P51812 422-679 limits assumed): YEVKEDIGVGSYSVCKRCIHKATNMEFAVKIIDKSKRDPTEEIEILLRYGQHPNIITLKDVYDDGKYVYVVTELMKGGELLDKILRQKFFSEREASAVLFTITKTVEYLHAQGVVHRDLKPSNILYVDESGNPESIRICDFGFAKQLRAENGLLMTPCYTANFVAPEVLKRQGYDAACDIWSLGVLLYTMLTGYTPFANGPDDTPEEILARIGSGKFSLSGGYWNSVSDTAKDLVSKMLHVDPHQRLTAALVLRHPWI

[5] = target: ABL1 (F317I)-nonphosphorylated (Homo sapiens, UniProt P00519, F317I); experiment: Kinase profiling; assay type: binding; details: read-out: % Ctrl @ 1000 nM
Chain of ABL1 (F317I)-nonphosphorylated (P00519 whole entry F317I): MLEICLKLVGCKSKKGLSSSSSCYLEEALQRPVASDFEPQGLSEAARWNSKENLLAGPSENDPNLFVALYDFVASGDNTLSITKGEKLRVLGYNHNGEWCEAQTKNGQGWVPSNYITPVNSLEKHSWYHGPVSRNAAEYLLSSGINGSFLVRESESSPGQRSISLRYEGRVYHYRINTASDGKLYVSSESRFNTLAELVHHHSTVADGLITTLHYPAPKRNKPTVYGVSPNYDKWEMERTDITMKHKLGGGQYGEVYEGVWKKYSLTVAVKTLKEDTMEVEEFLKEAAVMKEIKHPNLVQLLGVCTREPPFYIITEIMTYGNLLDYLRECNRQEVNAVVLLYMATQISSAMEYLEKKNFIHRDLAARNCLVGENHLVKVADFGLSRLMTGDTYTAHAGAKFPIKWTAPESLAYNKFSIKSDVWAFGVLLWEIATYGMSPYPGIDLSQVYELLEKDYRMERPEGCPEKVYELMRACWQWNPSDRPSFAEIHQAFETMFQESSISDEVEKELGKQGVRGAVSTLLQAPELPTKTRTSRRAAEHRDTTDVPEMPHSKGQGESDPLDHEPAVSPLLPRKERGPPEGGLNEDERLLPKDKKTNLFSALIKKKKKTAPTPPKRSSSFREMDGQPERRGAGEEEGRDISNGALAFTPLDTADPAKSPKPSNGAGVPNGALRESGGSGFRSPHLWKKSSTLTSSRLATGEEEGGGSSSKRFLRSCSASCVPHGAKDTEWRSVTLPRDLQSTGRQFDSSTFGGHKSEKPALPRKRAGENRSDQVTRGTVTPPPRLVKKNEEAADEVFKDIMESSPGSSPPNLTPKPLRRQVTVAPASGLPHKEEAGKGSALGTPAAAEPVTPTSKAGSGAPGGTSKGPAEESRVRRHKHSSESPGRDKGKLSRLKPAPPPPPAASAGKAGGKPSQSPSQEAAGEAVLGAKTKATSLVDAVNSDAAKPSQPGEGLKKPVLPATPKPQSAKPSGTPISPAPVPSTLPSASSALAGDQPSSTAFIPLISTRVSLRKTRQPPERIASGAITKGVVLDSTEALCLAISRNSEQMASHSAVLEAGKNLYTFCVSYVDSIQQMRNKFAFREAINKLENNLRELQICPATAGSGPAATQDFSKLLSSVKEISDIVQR

RIOK3 = RIOK3 (Homo sapiens, UniProt O14730); experiment: Kinase profiling; assay type: binding; details: read-out: % Ctrl @ 1000 nM
MAP3K2 = MAP3K2 (Homo sapiens, UniProt Q9Y2U5); experiment: Kinase profiling; assay type: binding; details: read-out: % Ctrl @ 1000 nM
MST1R = target: T4, MST1R (Homo sapiens, UniProt Q04912); experiment: Kinase profiling; assay type: binding; details: read-out: % Ctrl @ 1000 nM
T4 construct: T7 phage fusion (stated for most kinases of the panel only); made in house; host or cells: T7 phage in E. coli (BL21-derived) or HEK-293 cells

Cc1cc(Oc2cc(NC(=O)C3CC3)ncn2)ccc1NC(=O)Nc1ccc(Cl)c(C(F)(F)F)c1 [CBT-102]
remaining activity at 1 µM [1]: 92%
remaining activity at 1 µM (ABL1-phosphorylated): 67%
remaining activity at 1 µM (PCTK1): 88%
remaining activity at 1 µM (SGK): 100%
remaining activity at 1 µM (FRK): 6.1%
remaining activity at 1 µM (ADCK3): 100%
remaining activity at 1 µM (CAMK1G): 91%
remaining activity at 1 µM (ROS1): 63%
remaining activity at 1 µM (NIK): 100%
remaining activity at 1 µM (JNK2): 31%
remaining activity at 1 µM (PIK3CA (E545K)): 94%
remaining activity at 1 µM (TIE2): 16%
remaining activity at 1 µM (JNK1): 90%
remaining activity at 1 µM (EPHB3): 82%
remaining activity at 1 µM (KIT (V559D, V654A)): 2.8%
remaining activity at 1 µM (CDK11): 0%
effect on T cell surface marker CD3 (IHC) [2]: no significant effect
remaining activity at 1 µM (BMPR1B): 99%
remaining activity at 1 µM [3]: 78%
remaining activity at 1 µM (BUB1): 100%
remaining activity at 1 µM (CAMK2A): 88%
remaining activity at 1 µM (CSNK1G1): 100%
remaining activity at 1 µM (PRKR): 92%
remaining activity at 1 µM (CIT): 87%
remaining activity at 1 µM (NEK6): 100%
remaining activity at 1 µM (PFTAIRE2): 60%
remaining activity at 1 µM (S6K1): 99%
remaining activity at 1 µM (FLT3 (D835Y)): 61%
remaining activity at 1 µM (MUSK): 47%
remaining activity at 1 µM (TLK1): 100%
remaining activity at 1 µM (KIT (L576P)): 0%
remaining activity at 1 µM (PIP5K1A): 100%
remaining activity at 1 µM [4]: 83%
remaining activity at 1 µM [5]: 70%
remaining activity at 1 µM (RIOK3): 65%
remaining activity at 1 µM (MAP3K2): 90%
remaining activity at 1 µM (MST1R): 89%
